Assays:
barnyardgrass [1] = assay: Test A pre-/postemergence herbicide test; type: in vivo, Echinochloa crus-galli
Procedure, shortened: (§1)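 Visual injury scores on a 0–100 scale (100 = complete control) taken about ten days post-treatment in greenhouse against untreated controls; dash means no result. Treatments: preemergence soil spray and postemergence spray to runoff on one- to two-leaf plants 2 to 10 cm tall, surfactant-containing formulation.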

large crabgrass [2] = assay: Test A pre-/postemergence herbicide test; type: in vivo, Digitaria sanguinalis
Procedure, shortened: as §1

giant foxtail [3] = assay: Test A pre-/postemergence herbicide test; type: in vivo, Setaria faberi
Procedure, shortened: as §1

morningglory [4] = assay: Test A pre-/postemergence herbicide test; type: in vivo, Ipomoea spp.
Procedure, shortened: as §1

redroot pigweed = assay: Test A pre-/postemergence herbicide test; type: in vivo, Amaranthus retroflexus
Procedure, shortened: as §1

velvetleaf [5] = assay: Test A pre-/postemergence herbicide test; type: in vivo, Abutilon theophrasti
Procedure, shortened: as §1

barnyardgrass [6] = assay: Test B pre-/postemergence herbicide test; type: in vivo, Echinochloa crus-galli; conditions: for Barnyardgrass plant response rating: postemergence, visual rating, scale 0 (no effect) to 100 (complete control)
Procedure, shortened: (§2)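 Flooded paddy rice and barnyardgrass were treated at the 2-leaf stage; upland plantings received compound either on sown seed or on 1- to 4-leaf seedlings. All were kept 13–15 days in a greenhouse and scored visually, 0–100, relative to untreated plants.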

Surinam grass = assay: Test B pre-/postemergence herbicide test; type: in vivo, Urochloa decumbens; conditions: for Surinam Grass plant response rating: postemergence, visual rating, scale 0 (no effect) to 100 (complete control)
Procedure, shortened: (§3)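 Greenhouse pot assay with simultaneous preemergence (treated seed) and postemergence (2–18 cm seedlings) applications of surfactant-containing, non-phytotoxic solvent formulations. Response scored visually 13–15 days later on a 0–100 scale, 100 meaning complete control.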

cocklebur = assay: Test B pre-/postemergence herbicide test; type: in vivo, Xanthium strumarium; conditions: for Cocklebur plant response rating: postemergence, visual rating, scale 0 (no effect) to 100 (complete control)
Procedure, shortened: as §2

corn = assay: Test B pre-/postemergence herbicide test; type: in vivo, Zea mays; conditions: for Corn plant response rating: postemergence, visual rating, scale 0 (no effect) to 100 (complete control)
Procedure, shortened: as §3

large crabgrass [7] = assay: Test B pre-/postemergence herbicide test; type: in vivo, Digitaria sanguinalis; conditions: for Crabgrass, Large plant response rating: postemergence, visual rating, scale 0 (no effect) to 100 (complete control)
Procedure, shortened: as §3

giant foxtail [8] = assay: Test B pre-/postemergence herbicide test; type: in vivo, Setaria faberi; conditions: for Foxtail, Giant plant response rating: postemergence, visual rating, scale 0 (no effect) to 100 (complete control)
Procedure, shortened: as §3

lambsquarters = assay: Test B pre-/postemergence herbicide test; type: in vivo, Chenopodium album; conditions: for Lambsquarters plant response rating: postemergence, visual rating, scale 0 (no effect) to 100 (complete control)
Procedure, shortened: as §3

morningglory [9] = assay: Test B pre-/postemergence herbicide test; type: in vivo, Ipomoea coccinea; conditions: for Morningglory plant response rating: postemergence, visual rating, scale 0 (no effect) to 100 (complete control)
Procedure, shortened: as §2

pigweed = assay: Test B pre-/postemergence herbicide test; type: in vivo, Amaranthus retroflexus; conditions: for Pigweed plant response rating: postemergence, visual rating, scale 0 (no effect) to 100 (complete control)
Procedure, shortened: as §3

velvetleaf [10] = assay: Test B pre-/postemergence herbicide test; type: in vivo, Abutilon theophrasti; conditions: for Velvetleaf plant response rating: postemergence, visual rating, scale 0 (no effect) to 100 (complete control)
Procedure, shortened: as §3

blackgrass = assay: Test B postemergence herbicide test; type: in vivo, Alopecurus myosuroides; conditions: postemergence, visual rating, scale 0 (no effect) to 100 (complete control)
Procedure, shortened: (§4)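 After treating 2-leaf paddy plants or 2–18 cm postemergence plants (1 to 4 leaves) with formulated chemical, researchers kept them in a greenhouse for 13–15 days. Effects were judged visually versus controls: 0 indicates none, 100 total control.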

wheat = assay: Test B postemergence herbicide test; type: in vivo, Triticum aestivum; design: key to Wheat plant response rating: 0 = no effect, 100 = complete control; conditions: postemergence, visual rating, scale 0 (no effect) to 100 (complete control)
Procedure, shortened: (§5)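 Treated at 2-leaf (paddy) or 1–4-leaf, 2–18 cm (postemergence); greenhouse 13–15 d; visual score vs control, 0 none to 100 complete control; dash = not tested.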

wild oat = assay: Test B postemergence herbicide test; type: in vivo, Avena fatua; conditions: postemergence, visual rating, scale 0 (no effect) to 100 (complete control)
Procedure, shortened: as §5

rice = assay: Test B flooded paddy test; type: in vivo, Oryza sativa; conditions: 1000 g ai/ha, visual rating, scale 0 to 100 (0 no effect, 100 complete control), 13 to 15 days
Procedure, shortened: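 Greenhouse test; postemergence application to plants at 1–4 leaves (2–18 cm); paddy species at 2 leaves; evaluated visually vs controls at 13–15 days; scale 0–100 (100 = complete control).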

[11] = test system: small flower umbrella sedge; assay: Test B flooded paddy test; type: in vivo, Cyperus difformis; conditions: 1000 g ai/ha, visual rating, scale 0 to 100 (0 no effect, 100 complete control), 13 to 15 days
Procedure, shortened: as §4

ducksalad = assay: Test B flooded paddy test; type: in vivo, Heteranthera limosa; conditions: 1000 g ai/ha, visual rating, scale 0 to 100 (0 no effect, 100 complete control), 13 to 15 days
Procedure, shortened: as §4

barnyardgrass [12] = assay: Test B flooded paddy test; type: in vivo, Echinochloa crus-galli; conditions: 1000 g ai/ha, visual rating, scale 0 to 100 (0 no effect, 100 complete control), 13 to 15 days
Procedure, shortened: as §4

[13] = Postemergence, 500 g ai/ha, 0 to 100 scale, 0 no effect, 100 complete control
[14] = Postemergence, 2000 g ai/ha, 0 to 100 scale, 0 no effect, 100 complete control
[15] = Preemergence, 2000 g ai/ha, visual rating, 0 to 100 scale (0 no effect, 100 complete control)
[16] = preemergence, 500 g ai/ha, visual injury, 0 to 100 scale (0 no effect, 100 complete control)
[17] = 125 g ai/ha, 0 = no effect, 100 = complete control, preemergence
[18] = 500 g ai/ha, visual rating 0-100, 0 no effect, 100 complete control, preemergence

CC(=NO)c1cccc(NC(=O)c2cn(C(C)C)nc2C)c1 [Compound 180]
Barnyardgrass plant response rating (barnyardgrass [1]; [13]): 20 | Plant response rating, Barnyardgrass (barnyardgrass [1]; [14]): 30 | Barnyardgrass plant response rating (barnyardgrass [1]; [15]): 0 | Barnyardgrass plant response rating (barnyardgrass [1]; [16]): 0 | Crabgrass, Large plant response rating (large crabgrass [2]; [13]): 20 | Plant response rating, Crabgrass, Large (large crabgrass [2]; [14]): 35 | Crabgrass, Large plant response rating (large crabgrass [2]; [15]): 50 | Crabgrass, Large plant response rating (large crabgrass [2]; [16]): 10 | Foxtail, Giant plant response rating (giant foxtail [3]; [13]): 15 | Plant response rating, Foxtail, Giant (giant foxtail [3]; [14]): 20 | Foxtail, Giant plant response rating (giant foxtail [3]; [15]): 10 | Foxtail, Giant plant response rating (giant foxtail [3]; [16]): 0 | Morningglory plant response rating (morningglory [4]; [13]): 10 | Plant response rating, Morningglory (morningglory [4]; [14]): 15 | Morningglory plant response rating (morningglory [4]; [15]): 10 | Morningglory plant response rating (morningglory [4]; [16]): 0 | Pigweed plant response rating (redroot pigweed; [13]): 30 | Plant response rating, Pigweed (redroot pigweed; [14]): 95 | Pigweed plant response rating (redroot pigweed; [15]): 90 | Pigweed plant response rating (redroot pigweed; [16]): 0 | Velvetleaf plant response rating (velvetleaf [5]; [13]): 10 | Plant response rating, Velvetleaf (velvetleaf [5]; [14]): 15 | Velvetleaf plant response rating (velvetleaf [5]; [15]): 15 | Velvetleaf plant response rating (velvetleaf [5]; [16]): 0 | Barnyardgrass plant response rating (0 to 100 scale) (barnyardgrass [6]; [17]): 0 | Plant response rating, Barnyardgrass (barnyardgrass [6]; [18]): 0 | Barnyardgrass plant response rating (barnyardgrass [6]; 125 g ai/ha): 0 | Barnyardgrass plant response rating (barnyardgrass [6]; 500 g ai/ha): 0 | Surinam Grass plant response rating (0 to 100 scale) (Surinam grass; [17]): 0 | Plant response rating, Surinam Grass (Surinam grass; [18]): 0 | Surinam Grass plant response rating (Surinam grass; 125 g ai/ha): 0 | Surinam Grass plant response rating (Surinam grass; 500 g ai/ha): 0 | Cocklebur plant response rating (0 to 100 scale) (cocklebur; [17]): 0 | Plant response rating, Cocklebur (cocklebur; [18]): 0 | Cocklebur plant response rating (cocklebur; 125 g ai/ha): 0 | Cocklebur plant response rating (cocklebur; 500 g ai/ha): 0 | Corn plant response rating (0 to 100 scale) (corn; [17]): 0 | Plant response rating, Corn (corn; [18]): 0 | Corn plant response rating (corn; 125 g ai/ha): 0 | Corn plant response rating (corn; 500 g ai/ha): 0 | Crabgrass, Large plant response rating (0 to 100 scale) (large crabgrass [7]; [17]): 0 | Plant response rating, Crabgrass, Large (large crabgrass [7]; [18]): 0 | Crabgrass, Large plant response rating (large crabgrass [7]; 125 g ai/ha): 0 | Crabgrass, Large plant response rating (large crabgrass [7]; 500 g ai/ha): 0 | Foxtail, Giant plant response rating (0 to 100 scale) (giant foxtail [8]; [17]): 0 | Plant response rating, Foxtail, Giant (giant foxtail [8]; [18]): 0 | Foxtail, Giant plant response rating (giant foxtail [8]; 125 g ai/ha): 0 | Foxtail, Giant plant response rating (giant foxtail [8]; 500 g ai/ha): 0 | Lambsquarters plant response rating (0 to 100 scale) (lambsquarters; [17]): 0 | Plant response rating, Lambsquarters (lambsquarters; [18]): 0 | Lambsquarters plant response rating (lambsquarters; 125 g ai/ha): 0 | Lambsquarters plant response rating (lambsquarters; 500 g ai/ha): 0 | Morningglory plant response rating (0 to 100 scale) (morningglory [9]; [17]): 0 | Plant response rating, Morningglory (morningglory [9]; [18]): 0 | Morningglory plant response rating (morningglory [9]; 125 g ai/ha): 0 | Morningglory plant response rating (morningglory [9]; 500 g ai/ha): 0 | Pigweed plant response rating (0 to 100 scale) (pigweed; [17]): 0 | Plant response rating, Pigweed (pigweed; [18]): 0 | Pigweed plant response rating (pigweed; 125 g ai/ha): 0 | Pigweed plant response rating (pigweed; 500 g ai/ha): 0 | Velvetleaf plant response rating (0 to 100 scale) (velvetleaf [10]; [17]): 0 | Plant response rating, Velvetleaf (velvetleaf [10]; [18]): 0 | Velvetleaf plant response rating (velvetleaf [10]; 125 g ai/ha): 0 | Velvetleaf plant response rating (velvetleaf [10]; 500 g ai/ha): 0 | Blackgrass plant response rating (blackgrass; 125 g ai/ha): 0 | Blackgrass plant response rating (blackgrass; 500 g ai/ha): 0 | Wheat plant response rating (wheat; 125 g ai/ha): 0 | Wheat plant response rating (wheat; 500 g ai/ha): 0 | Oat, Wild plant response rating (wild oat; 125 g ai/ha): 0 | Oat, Wild plant response rating (wild oat; 500 g ai/ha): 0 | Rice plant response rating (rice): 0 | Sedge, Umbrella plant response rating [11]: 0 | Ducksalad plant response rating (ducksalad): 20 | Barnyardgrass plant response rating (barnyardgrass [12]): 20

Reference: patent US20060069132A1, “Azolecarboxamide herbicides” (priority 2004, published 2006)
